Activity calls are given as the source filed them. No cut-off for these calls is given here.
What was measured:
[1] = target: Stimulator of interferon genes protein (Homo sapiens) (UniProt Q86WV6); assay: Agonist activity at STING in human THP-1 cells assessed as increase in IFNB mRNA level at 20 uM measured for 4 hrs by qPCR analysis; type: cell-based; conditions: filed as agonist
THP-1 [2] = assay: Upregulation of ISG15 mRNA level in STING-knockout human THP-1 cells at 20 uM measured for 4 hrs by qPCR analysis; type: functional, cell-based
[3] = target: Stimulator of interferon genes protein (Homo sapiens) (UniProt Q86WV6); assay: Binding affinity to human STING CTD assessed as change in protein denaturation temperature at 10 to 50 uM by thermal shift assay; conditions: filed as agonist, dose 10-50 µM
THP-1 [4] = assay: Upregulation of CXCL10 mRNA level in STING-knockout human THP-1 cells at 20 uM measured for 4 hrs by qPCR analysis; type: functional, cell-based
CT26 [5] = assay: Antitumor activity against mouse CT26 cells allografted in ip dosed […] mouse assessed as reduction in tumor growth administered every 2 days; type: functional, organism-based; conditions: dose 5-20 mg/kg
[6] = target: Stimulator of interferon genes protein (Homo sapiens) (UniProt Q86WV6); assay: Agonist activity at STING in human THP-1 cells assessed as increase in IRF3 phosphorylation incubated for 4 hrs by Western blotting analysis; type: cell-based; conditions: filed as agonist, dose 5-40 µM
CT26 [7] = assay: Antitumor activity against mouse CT26 cells […] mouse assessed as augmentation of CD8+ T cells in spleen at 10 mg/kg, ip administered every 2 days (reference value: 6.99%); type: functional
THP-1 [8] = assay: Upregulation of IFNB mRNA level in STING-knockout human THP-1 cells at 20 uM measured for 4 hrs by qPCR analysis; type: functional, cell-based
MC-38 [9] = assay: Antitumor activity against mouse MC38 cells allografted in C57/BL6 mouse assessed as increase in CD8+ T cells in tumor tissue at 300 ug, IT administered every 2 days by flow cytometry analysis (reference value: 4.10%); type: functional; conditions: dose 300 µg
Human alphaherpesvirus 1 [10] = assay: Antiviral activity against HSV-1-GFP infected in mouse MC38 cells assessed as reduction in viral infection by fluorescent microscopy analysis; type: functional, organism-based
[11] = target: T1, Stimulator of interferon genes protein (Mus musculus) (UniProt Q3TBT3); assay: Agonist activity at STING in MEF cells assessed as increase in STING oligomerization by Western blotting analysis; type: cell-based; conditions: filed as agonist
T1 sequence (whole entry): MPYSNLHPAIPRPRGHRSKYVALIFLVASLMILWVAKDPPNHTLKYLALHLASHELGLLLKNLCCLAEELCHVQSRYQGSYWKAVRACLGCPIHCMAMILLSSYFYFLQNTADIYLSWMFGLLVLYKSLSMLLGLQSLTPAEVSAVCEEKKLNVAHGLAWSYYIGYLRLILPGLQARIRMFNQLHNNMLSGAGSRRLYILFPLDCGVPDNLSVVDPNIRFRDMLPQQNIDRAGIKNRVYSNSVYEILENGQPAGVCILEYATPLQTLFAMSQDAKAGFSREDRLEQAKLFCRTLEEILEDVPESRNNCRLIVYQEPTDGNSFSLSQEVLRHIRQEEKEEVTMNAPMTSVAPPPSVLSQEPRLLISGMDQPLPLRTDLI

[12] = Toxicity in C57/BL6 mouse allografted with mouse MC38 cells assessed as change in body weight at 300 ug, IT administered every 2 days; type: cell-based, MC-38; conditions: in vivo, other, 48 h, dose 300 µg
THP-1 [13] = assay: Upregulation of IL6 mRNA level in STING-knockout human THP-1 cells at 20 uM measured for 4 hrs by qPCR analysis; type: functional, cell-based
[14] = target: T1, Stimulator of interferon genes protein (Mus musculus); assay: Agonist activity at STING in MEF cells assessed as STING translocation to golgi apparatus by measuring increase in red fluorescence incubated for 1 hr by laser scanning confocal microscope analysis; type: cell-based; conditions: filed as agonist
CT26 [15] = assay: Antitumor activity against mouse CT26 cells […] mouse assessed as augmentation of CD8+ T cells in spleen at 20 mg/kg, ip administered every 2 days (reference value: 6.99%); type: functional; conditions: time 2 day
Human alphaherpesvirus 1 [16] = assay: Antiviral activity against HSV-1-GFP infected in human STING overexpressing HeLa cells assessed as reduction in viral infection by fluorescent microscopy analysis; type: functional, organism-based
CT26 [17] = assay: Antitumor activity against mouse CT26 cells […] mouse assessed as augmentation of CD3+ T cells in spleen at 5 mg/kg, ip administered every 2 days (reference value: 13.9%); type: functional
Human alphaherpesvirus 1 [18] = assay: Antiviral activity against HSV-1-GFP infected in human STING-deficient WT HeLa cells assessed as reduction in viral infection by fluorescent microscopy analysis; type: functional, organism-based
[19] = target: Stimulator of interferon genes protein (Homo sapiens) (UniProt Q86WV6); assay: Agonist activity at STING in human THP-1 cells assessed as increase in TBK1 phosphorylation incubated for 4 hrs by Western blotting analysis; type: cell-based; conditions: filed as agonist, dose 5-40 µM
MC-38 [20] = assay: Antitumor activity against mouse MC38 cells allografted in C57/BL6 mouse assessed as increase in CD3+ T cells in spleen at 300 ug, IT administered every 2 days by flow cytometry analysis; type: functional, cell-based; conditions: dose 300.0 µg
MC-38 [21] = assay: Antitumor activity against mouse MC38 cells allografted in C57/BL6 mouse assessed as increase in CD8+ T cell numbers in tumor tissues at 300 ug, IT administered every 2 days by immunohistochemical staining based analysis; type: functional; conditions: dose 300.0 µg
CT26 [22] = assay: Antitumor activity against mouse CT26 cells […] mouse assessed as augmentation of CD45+ cells in spleen at 20 mg/kg, ip administered every 2 days (reference value: 35.1%); type: functional; conditions: time 2 day
[23] = target: Stimulator of interferon genes protein (Homo sapiens) (UniProt Q86WV6); assay: Agonist activity at STING in human THP-1 cells assessed as increase in IL6 mRNA level at 20 uM measured for 4 hrs by qPCR analysis; type: cell-based; conditions: filed as agonist
CT26 [24] = assay: Antitumor activity against mouse CT26 cells […] mouse assessed as augmentation of CD8+ T cells in spleen at 5 mg/kg, ip administered every 2 days (reference value: 6.99%); type: functional
MC-38 [25] = assay: Antitumor activity against mouse MC38 cells allografted in C57/BL6 mouse assessed as increase in CD3+ T cells in tumor tissue at 300 ug, IT administered every 2 days by flow cytometry analysis; type: functional, cell-based; conditions: dose 300.0 µg
MC-38 [26] = assay: Antitumor activity against mouse MC38 cells allografted in C57/BL6 mouse assessed as tumor growth inhibition at 300 ug, IT administered every 2 days relative to control; type: functional; conditions: dose 300 µg
[27] = target: Stimulator of interferon genes protein (Homo sapiens) (UniProt Q86WV6); assay: Agonist activity at STING in human THP-1 cells assessed as upregulation of innate immune response related genes by gene ontology analysis; type: cell-based; conditions: filed as agonist
B16-F10 = assay: Antitumor activity against mouse B16-F10 cells allografted in C57/BL6 mouse assessed as reduction in tumor growth at 300 ug, IT administered every 2 days; type: functional, cell-based; conditions: dose 300.0 µg
[28] = target: Stimulator of interferon genes protein (Homo sapiens) (UniProt Q86WV6); assay: Agonist activity at STING in human THP-1 cells assessed as upregulation of DNA replication related genes by gene ontology analysis; type: cell-based; conditions: filed as agonist
MC-38 [29] = assay: Antitumor activity against mouse MC38 cells allografted in C57/BL6 mouse assessed as increase in NK cells in spleen at 300 ug, IT administered every 2 days by flow cytometry analysis (reference value: 3.95%); type: functional; conditions: dose 300 µg, time 2 day
[30] = Toxicity in C57/BL6 mouse xenografted with mouse MC38 cells assessed as organ damage at 300 ug, IT administered every 2 days by hematoxylin and eosin staining based histological analysis; type: cell-based, MC-38; conditions: in vivo, other, 48 h, dose 300 µg

Sequence of Stimulator of interferon genes protein (Homo sapiens) (Q86WV6 whole entry): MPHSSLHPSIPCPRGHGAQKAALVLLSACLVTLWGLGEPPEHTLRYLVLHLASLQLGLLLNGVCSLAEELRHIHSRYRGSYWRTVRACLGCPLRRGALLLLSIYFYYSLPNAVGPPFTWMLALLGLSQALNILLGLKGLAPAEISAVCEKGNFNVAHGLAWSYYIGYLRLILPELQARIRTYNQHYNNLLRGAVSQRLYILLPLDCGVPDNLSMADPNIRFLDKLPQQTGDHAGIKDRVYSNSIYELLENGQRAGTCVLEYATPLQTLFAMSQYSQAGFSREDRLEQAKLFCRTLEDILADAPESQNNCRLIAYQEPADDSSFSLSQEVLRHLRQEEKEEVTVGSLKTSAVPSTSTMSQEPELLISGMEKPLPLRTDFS

In the case of `CC(NCCC(c1ccccc1)c1ccccc1)c1ccccc1` (stereo unspecified) [FENDILINE], the Activity [1] was “Active”, the Activity (THP-1 [2]) was “inactive” and the Activity [3] was “Active”. The Activity (THP-1 [4]) was “inactive”, the Activity (CT26 [5]) was “Dose-Dependent Effect” and the Activity [6] was “Dose-Dependent Effect”. For the same compound, the Activity (CT26 [7]) was 15.1%, the Activity (THP-1 [8]) was “inactive” and the Activity (MC-38 [9]) was 14.7%. The Activity (Human alphaherpesvirus 1 [10]) was “Active”, the Activity [11] was “Active” and the Activity [12] was “Non-Toxic”. The Activity (THP-1 [13]) was “inactive”, the Activity [14] was “Active” and the Activity (CT26 [15]) was 21%. The Activity (Human alphaherpesvirus 1 [16]) was “Active”, the Activity (CT26 [17]) was 20.3% and the Activity (Human alphaherpesvirus 1 [18]) was “Active”. For the same compound, the Activity [19] was “Dose-Dependent Effect”, the Activity (MC-38 [20]) was “Active” and the Activity (MC-38 [21]) was “Active”. The Activity (CT26 [22]) was 76.1%, the Activity [23] was “Active” and the Activity (CT26 [24]) was 12.7%. The Activity (MC-38 [25]) was “Active”, the TGI (MC-38 [26]) was 82% and the Activity [27] was “Active”. For the same compound, the Activity (B16-F10) was “Active”, the Activity [28] was “Active” and the Activity (MC-38 [29]) was 5.94%. The Activity [30] was “Non-Toxic”.

— ChEMBL document CHEMBL5518165, “M335, a novel small-molecule STING agonist activates the immune response and exerts antitumor effects” (Eur J Med Chem, 2024)
